Like-named read-outs stand apart in the source and are kept apart here.
Legend:
[1] = in vivo; cited from earlier work
[2] = CYP2D6 Extensive/Ultra Metabolizer
[3] = Drug Titration Period (first 42 days)
[4] = treatment-emergent AE, total follow-up

COCCc1ccc(OCC(O)CNC(C)C)cc1 (stereo not shown) [metoprolol, metoprolol succinate, reference compound]
HEADACHE, % of patients [2]: (4.5%) | HEADACHE, number of patients [2]: 5 | HYPOTENSION, % of patients [2]: (8.1%) | HYPOTENSION, number of patients [2]: 9 | IMMUNE SYSTEM DISORDERS, % of patients [2]: (0.9%) | IMMUNE SYSTEM DISORDERS, number of patients [2]: 1 | INFECTIONS AND INFESTATIONS, % of patients [2]: (20.7%) | INFECTIONS AND INFESTATIONS, number of patients [2]: 23 | INFLUENZA, % of patients [2]: (2.7%) | INFLUENZA, number of patients [2]: 3 | HEADACHE, % of patients (CYP2D6 Poor Metabolizer): (0.0%) | HEADACHE, number of patients (CYP2D6 Poor Metabolizer): 0 | INFECTIONS AND INFESTATIONS, % of patients (CYP2D6 Poor Metabolizer): (12.5%) | INFECTIONS AND INFESTATIONS, number of patients (CYP2D6 Poor Metabolizer): 1 | INFLUENZA, % of patients (CYP2D6 Poor Metabolizer): (0.0%) | INFLUENZA, number of patients (CYP2D6 Poor Metabolizer): 0 | UPPER RESPIRATORY TRACT INFECTION, % of patients (CYP2D6 Poor Metabolizer): (0.0%) | UPPER RESPIRATORY TRACT INFECTION, number of patients (CYP2D6 Poor Metabolizer): 0 | AC mortality or CV hosp or treatment disc. due to AE, patients N (%) [3]: 6 (5%) | All-cause mortality, patients N (%) [3]: 1 (1%) | AEs leading to study withdrawal (excluding death) (GENETIC-AF, all randomized patients): 1.5% | Adverse event leading to death, patients N (%) (Total Study On-Drug Period): 2.3% | Adverse events leading to study withdrawal (excluding death), patients N (%) (Total Study On-Drug Period): 2 (1.5%) | Adverse event leading to death, patients N (%) (Total Study On-Drug Period, listed as Metoprolol): 3 (2.3%) | AE SOC frequency: Cardiac Disorders (human, in vivo): 26.3% | AE SOC frequency: Eye Disorders (human, in vivo): 3.0% | AE SOC frequency: Gastrointestinal Disorders (human, in vivo): 18.0% | AE SOC frequency: Hepatobiliary Disorders (human, in vivo): 2.3% | AE SOC frequency: Infections and Infestations (human, in vivo): 21.8% | AE SOC frequency: Investigators (human, in vivo): 7.5% | AE SOC frequency: Metabolism and Nutrition Disorders (human, in vivo): 12.0% | AE SOC frequency: Musculoskeletal and Connective Tissue Disorders (human, in vivo): 15.0% | AE SOC frequency: Neoplasms Benign Malignant and Unspecified (human, in vivo): 6.8% | AE SOC frequency: Renal and Urinary Disorders (human, in vivo): 9.8% | AE SOC frequency: Respiratory, Thoracic and Mediastinal Disorders (human, in vivo): 10.5% | AE frequency: arthralgia (human, in vivo): 3.8% | AE frequency: cardiac failure (human, in vivo): 3.8% | AE frequency: chronic kidney disease (human, in vivo): 0.8% | AE frequency: constipation (human, in vivo): 1.5% | AE frequency: epistaxis (human, in vivo): 0.0% | AE frequency: hematuria (human, in vivo): 0.0% | AE frequency: hypomagnesaemia (human, in vivo): 0.0% | AE frequency: hypotension (human, in vivo): 7.5% | AE frequency: pneumonia (human, in vivo): 0.8% | AE frequency: upper respiratory tract infection (human, in vivo): 4.5% | AEs leading to permanent study drug discontinuation (human, in vivo): 8.3% | AEs: Bradycardia (human, in vivo): 12.0% | AEs: Stroke (99% on OACs) (human, in vivo): 0.0% | Adverse event possible/probably related to study drug, patients N (%) (human, in vivo): 40 (30.1%) | Adverse events leading to permanent study drug discontinuation, patients N (%) (human, in vivo): 11 (8.3%) | Adverse events related to neoplasm, patients N (%) (human, in vivo): 9 (6.8%) | Any bradycardia event, % of patients (human, in vivo): (12%) | Any bradycardia event, number of patients (human, in vivo): 16 | Any bradycardia, % of patients (human, in vivo): (12%) | Any bradycardia, number of patients (human, in vivo): 16 | Any serious adverse event, % of patients (human, in vivo): (20%) | Any serious adverse event, number of patients (human, in vivo): 26 | Asymptomatic bradycardia event, % of patients (human, in vivo): (8%) | Asymptomatic bradycardia event, number of patients (human, in vivo): 10 | Asymptomatic bradycardia, % of patients (human, in vivo): (8%) | Asymptomatic bradycardia, number of patients (human, in vivo): 10 | Bradycardia AEs (human, in vivo): 3 (38%) | Bradycardia event leading to study drug discontinuation, % of patients (human, in vivo): (1%) | Bradycardia event leading to study drug discontinuation, number of patients (human, in vivo): 1 | Bradycardia event leading to study drug dose interruption, % of patients (human, in vivo): (2%) | Bradycardia event leading to study drug dose interruption, number of patients (human, in vivo): 2 | Bradycardia event leading to study drug dose reduction, % of patients (human, in vivo): (8%) | Bradycardia event leading to study drug dose reduction, number of patients (human, in vivo): 11 | CAD, % of patients (human, in vivo): (1%) | CAD, number of patients (human, in vivo): 1 | Cardiac AE rate (heart failure or bradycardia events) (human, in vivo): 50% | Cardiovascular serious adverse event, % of patients (human, in vivo): (10%) | Cardiovascular serious adverse event, number of patients (human, in vivo): 13 | Catheterization, % of patients (human, in vivo): (1%) | Catheterization, number of patients (human, in vivo): 1 | EPISTAXIS, % of patients (human, in vivo): (0.0%) | EPISTAXIS, number of patients (human, in vivo): 0 | HAEMATURIA, % of patients (human, in vivo): (0.0%) | HAEMATURIA, number of patients (human, in vivo): 0 | HYPOMAGNESAEMIA, % of patients (human, in vivo): (0.0%) | HYPOMAGNESAEMIA, number of patients (human, in vivo): 0 | Heart block (Mobitz I/II, 2:1, or 3rd degree), % of patients (human, in vivo): (0%) | Heart block (Mobitz I/II, 2:1, or 3rd degree), number of patients (human, in vivo): 0 | ICD Implantation, % of patients (human, in vivo): (5%) | ICD Implantation, number of patients (human, in vivo): 7 | Incidence of Cr > 3.0, % of patients (human, in vivo): (1%) | Incidence of Cr > 3.0, number of patients (human, in vivo): 1 | Incidence of bilirubin > 2.0, % of patients (human, in vivo): (2%) | Incidence of bilirubin > 2.0, number of patients (human, in vivo): 2 | Non-CNS Embolism, % of patients (human, in vivo): (0%) | Non-CNS Embolism, number of patients (human, in vivo): 0 | Pacemaker Implantation, % of patients (human, in vivo): (2%) | Pacemaker Implantation, number of patients (human, in vivo): 3 | SAE SOC frequency: Infections and Infestations (human, in vivo): 3.0% | SAE SOC frequency: Renal and Urinary Disorders (human, in vivo): 1.5% | SAE SOC frequency: Respiratory, Thoracic and Mediastinal Disorders (human, in vivo): 1.5% | SAE frequency: Cardiac Failure (human, in vivo): 2.3% | SAE frequency: Cardiac Failure Congestive (human, in vivo): 5.3% | SAEs: Any cardiovascular event (human, in vivo): 9.8% | Stroke, % of patients (human, in vivo): (0%) | Stroke, number of patients (human, in vivo): 0 | Symptomatic bradycardia event, % of patients (human, in vivo): (5%) | Symptomatic bradycardia event, number of patients (human, in vivo): 7 | Symptomatic bradycardia, % of patients (human, in vivo): (5%) | Symptomatic bradycardia, number of patients (human, in vivo): 7 | TIA, % of patients (human, in vivo): (1%) | TIA, number of patients (human, in vivo): 1 | UPPER RESPIRATORY TRACT INFECTION, % of patients (human, in vivo): (4.5%) | UPPER RESPIRATORY TRACT INFECTION, number of patients (human, in vivo): 5 | All-cause hospitalization, patients N (%) (human, in vivo, 42 days): 9 (7%) | Any serious adverse event, patients N (%) (human, in vivo, 42 days): 10 (8%) | Asymptomatic bradycardia, patients N (%) (human, in vivo, 42 days): 4 (3%) | Cardiovascular hospitalization, patients N (%) (human, in vivo, 42 days): 4 (3%) | Heart failure hospitalization, patients N (%) (human, in vivo, 42 days): 4 (3%) | Symptomatic bradycardia, patients N (%) (human, in vivo, 42 days): 3 (2%) | Treatment-related cardiovascular serious adverse event, patients N (%) (human, in vivo, 42 days): 0 (0%) | Treatment-related serious adverse event, patients N (%) (human, in vivo, 42 days): 0 (0%) | Ablation, % of patients (in vivo): (14%) | Ablation, number of patients (in vivo): 18 | Additional ECV After Successful SR, % of patients (in vivo): (23%) | Additional ECV After Successful SR, number of patients (in vivo): 30 | Anti-Arrhythmic Therapy, % of patients (in vivo): (33%) | Anti-Arrhythmic Therapy, number of patients (in vivo): 44 | Appropriate Firing of on ICD, % of patients (in vivo): (1%) | Appropriate Firing of on ICD, number of patients (in vivo): 1 | Rate Control Therapy, % of patients (in vivo): (11%) | Rate Control Therapy, number of patients (in vivo): 15 | TIA, patients (in vivo): One | HEADACHE, % of patients [4]: (3.8%) | HEADACHE, number of patients [4]: 5 | INFECTIONS AND INFESTATIONS, % of patients [4]: (21.8%) | INFECTIONS AND INFESTATIONS, number of patients [4]: 29 | INFLUENZA, % of patients [4]: (2.3%) | INFLUENZA, number of patients [4]: 3 | UPPER RESPIRATORY TRACT INFECTION, % of patients [4]: (4.5%) | UPPER RESPIRATORY TRACT INFECTION, number of patients [4]: 6 | INFECTIONS AND INFESTATIONS, % of patients (treatment-emergent serious AE): (3.0%) | INFECTIONS AND INFESTATIONS, number of patients (treatment-emergent serious AE): 4 | Bioavailability [1]: approximately 50%

From patent publication US10925856B2, “Methods and compositions involving bucindolol for the treatment of atrial fibrillation” (priority 2018, dated 2021)
